Source: patent US20250262268A1, “Methods and Compositions for Inhibiting Viral Infection” (New York Genome Center, Inc., priority 2020, published 2025)
Entries after “also recorded” stand apart in the source; their conditions may differ.

Columns and labels:
[1] = test system: SARS-CoV-2; assay: qPCR of SARS-CoV-2 viral load in non-targeting or PIK3C3 CRISPR-perturbed A549-ACE2 cells treated with PIK3C3 inhibitors; format: cell-based; settings: 10 μM, 2 hours pretreatment, MOI 0.1, 36 hpi
[2] = test system: primary human CD8+ T-cells; assay: T cell activation, intracellular cytokine staining after CD3/CD28 stimulation; format: cell-based; settings: 10 μM, 1 hour pre-incubation
[3] = test system: SARS-CoV-2; assay: qRT-PCR of SARS-CoV-2 viral load in inhibitor-treated A549-ACE2 cells; format: cell-based, SARS-CoV-2 isolate USA-WA1/2020; settings: 10 μM inhibitor, MOI 0.1, 36 hpi

Nc1ncc(-c2ccnc(Nc3ccncc3)n2)c(CC2CC2)n1 [PIK-III]
specificity for PIK3C3: viral inhibition in PIK3C3 CRISPR-perturbed versus non-targeting cells [1]: specific

C[C@@H]1COCCN1c1cc(=O)n2c(n1)N(Cc1cncc(Cl)c1)[C@H](C(F)(F)F)CC2 [SAR405]
specificity for PIK3C3: viral inhibition in PIK3C3 CRISPR-perturbed versus non-targeting cells [1]: greater viral inhibition in PIK3C3 CRISPR-perturbed cells; also recorded: may have some off-target effects

Cc1cc(Nc2cc(Cl)nc(Oc3ccc([N+](=O)[O-])cc3)n2)n[nH]1 [autophinib, Autophinib]
specificity for PIK3C3: viral inhibition in PIK3C3 CRISPR-perturbed versus non-targeting cells [1]: specific

CC[C@H](Nc1ncnc2[nH]cnc12)c1nc2cccc(F)c2c(=O)n1-c1ccccc1 [idelalisib, Idelalisib]
release of interferon-gamma (IFNγ) by CD8+ T-cells [2]: significant reduction
release of tumor necrosis factor (TNF) by CD8+ T-cells [2]: significant reduction

CC/C(=C(\c1ccccc1)c1ccc(OCCN(C)C)cc1)c1ccccc1 [tamoxifen, Tamoxifen]
effect on T-cell activation and cytokine secretion [2]: no effect
reduction in SARS-CoV-2 viral load (in words) [3]: substantial reduction
